# Test results: patent US11464749B2, “Bismuth-thiol compositions and methods of use” (Microbion Corporation, priority 2018, dated 2022)
# Read-outs that look alike come from different tables or passages of the source.
# Tested on: A. fumigatus
# Test: Broth microdilution antifungal susceptibility (Example 13)
# Assay type: cell-based
# Conditions: for MIC: Aspergillus fumigatus
structure (smiles),measurement,setting,value
"CC(S)C(C)S.[Bi] (stereo not drawn) [BisBDT, bismuth-2,3-butanedithiol]",MIC0 24 hr,"A. fumigatus ATCC MYA-3626, 24 hr",2 µg/mL
same,MIC0 24 hr,"A. fumigatus MMX 5934, 24 hr",2 µg/mL
same,MEC at 48 hr (MIC0 not observed),"A. fumigatus MMX 5934, 48 hr",4 µg/mL
same,MIC,"ATCC204305, A. fumigatus ATCC 204305, 24 hr, read-out: MIC0 24 hr",8 µg/mL
same,MIC,"ATCC204305, A. fumigatus ATCC 204305, 48 hr, read-out: MEC at 48 hr (MIC0 not observed)",4 µg/mL
same,MIC,"A. fumigatus ATCC MYA-3626, 48 hr, read-out: MIC0 48 hr",4 µg/mL
same,MIC,"A. fumigatus MMX 5939, 24 hr, read-out: MIC0 24 hr",2 µg/mL
same,MIC,"A. fumigatus MMX 5939, 48 hr, read-out: MEC at 48 hr (MIC0 not observed)",4 µg/mL
same,MIC,read-out: MIC0 48 hr,1 µg/mL
